The results in this text go back to patent US9133128B2, “Pyrazole derivatives as cannabinoid receptor 1 antagonists” (Research Triangle Institute, priority 2011, dated 2015).

Like-named read-outs stand apart in the source and are kept apart here.

The target of assay [1] is T1, CB1 (Homo sapiens, UniProt P21554).
T1 construct: expressed in transfected cells; host or cells: CHO-K1 (membranes)
Put plainly: CB1 activated Gαq16-coupled intracellular calcium mobilization assay in CHO-K1 cells (apparent affinity Ke). Type of assay: cell-based. The note with it: calcium mobilization. In general terms: A change in cytosolic calcium serves as a functional read-out for many receptors and channels.

The target in another assay is T2, CB2 (Homo sapiens, UniProt P34972).
T2 construct: expressed in transfected cells; host or cells: CHO-K1 (membranes)
T2 sequence (P34972 whole entry): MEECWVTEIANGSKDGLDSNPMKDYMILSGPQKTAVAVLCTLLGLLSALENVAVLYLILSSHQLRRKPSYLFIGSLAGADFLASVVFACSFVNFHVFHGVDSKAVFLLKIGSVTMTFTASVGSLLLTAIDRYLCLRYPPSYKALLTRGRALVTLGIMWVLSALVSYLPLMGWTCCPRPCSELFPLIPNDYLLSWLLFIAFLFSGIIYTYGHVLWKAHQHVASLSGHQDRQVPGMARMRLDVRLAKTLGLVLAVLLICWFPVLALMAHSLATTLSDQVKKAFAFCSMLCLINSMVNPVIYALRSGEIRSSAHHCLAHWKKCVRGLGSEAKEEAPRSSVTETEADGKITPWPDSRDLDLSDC
The experiment in a line: Displacement of [3H]CP55940 in membranes of CHO-K1 cells over-expressing CB2. It counts as binding. As for the experimental part:
All compounds were characterized by H^1 NMR and evaluated using a calcium mobilization assay. Each compound was pharmacologically characterized using a functional fluorescent CB1 activated Gαq16-coupled intracellular calcium mobilization assay in CHO-K1 cells as has been previously described and apparent affinity (Ke) values were determined. See Zhang et al., J. Med. Chem. 2010, 53, 7048, which is incorporated herein by reference. Further characterization of select compounds was performed using radioligand displacement of [3H]1 and equilibrium dissociation constant (Ki) values were determined. Selectivity of these compounds at CB1 versus CB2 was also determined by obtaining Ki values at either receptor using displacement of [3H]CP55940 in membranes of CHO-K1 cells over-expressing either receptor. Data reported are average values from 3-6 measurements.
Select compounds were chosen for further study in radioligand displacement assays using radiolabeled rimonobant, SR141716 ([^3H]1). […] Selectivity against the CB2 receptor was determined by comparing the compound displacement of radiolabeled CP55940, which is a cannabinoid known to act as a full agonist at both CB1 and CB2 receptors. In general, tested compounds were selective for CB1 over CB2.
For orientation: In a radioligand displacement assay an active substance lowers the binding of a labelled ligand.

The target of assay [2] is T1, CB1. The experiment in a line: Displacement of [3H]CP55940 in membranes of CHO-K1 cells over-expressing CB1. Type of assay: binding. The note with it: for Binding Selectivity using CP55940 Displacement: CB2 Ki over CB1 Ki; for Ki: read-out: Ki (nM) v. [3H] CP55940 at CB1.
[3] abbreviates: Table 4, read-out: Ke (nM) at CB1.
The mark [4] stands for this setting: Table 2, apparent affinity, read-out: Ke CB1.
Setting [5] is: Table 5, read-out: Ke (nM) at CB1.
The mark [6] stands for this setting: Table 5, read-out: Ki (nM) v. [3H] CP55940 at CB2.
[7] abbreviates: Table 4, read-out: Ki (nM) v. [3H] CP55940 at CB2.

T1 sequence (P21554 whole entry): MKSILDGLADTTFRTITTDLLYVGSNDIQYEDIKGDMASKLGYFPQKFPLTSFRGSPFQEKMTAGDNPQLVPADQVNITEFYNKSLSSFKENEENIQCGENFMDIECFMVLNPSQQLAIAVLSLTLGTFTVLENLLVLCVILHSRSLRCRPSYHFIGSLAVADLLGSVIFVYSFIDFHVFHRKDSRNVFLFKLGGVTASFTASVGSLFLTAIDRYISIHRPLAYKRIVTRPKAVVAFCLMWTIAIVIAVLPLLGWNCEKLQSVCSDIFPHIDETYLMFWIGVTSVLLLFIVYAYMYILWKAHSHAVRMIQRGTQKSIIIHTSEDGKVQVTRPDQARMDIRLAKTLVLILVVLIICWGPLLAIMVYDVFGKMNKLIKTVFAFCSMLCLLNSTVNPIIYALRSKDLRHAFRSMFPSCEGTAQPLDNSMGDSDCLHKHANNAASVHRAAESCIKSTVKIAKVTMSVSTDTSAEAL

Consider `Cc1c(C(=O)N2CCC(N)CC2)nn(-c2ccc(Cl)cc2Cl)c1-c1ccc(Cl)cc1` [Cl, H, NH2, 1-{[5-(4-Chlorophenyl)-1-(2,4-dichlorophenyl)-4-methyl-1H-pyrazol-3-yl]carbonyl}piperidin-4-amine], for which the Kb on CB1 [1] (setting [3]) came out at 1920 nM.

As for `Cc1c(C(=O)NCc2cccc(CNS(N)(=O)=O)c2)nn(-c2ccc(Cl)cc2Cl)c1-c1ccc(Cl)cc1` [5-(4-chlorophenyl)-1-(2,4-dichlorophenyl)-4-methyl-N-({3-[(sulfamoylamino)methyl]phenyl}methyl)-1H-pyrazole-3-carboxamide], the Kb at CB1 [1] (setting [4]) amounted to 4200 nM.

In the case of `Cc1c(C(=O)N2CCC(NC(=O)NC(C)C)CC2)nn(-c2ccc(Cl)cc2Cl)c1-c1ccc(Cl)cc1` [Cl, H, NHC(O)NHCH(CH3)2, 1-(1-{[5-(4-Chlorophenyl)-1-(2,4-dichlorophenyl)-4-methyl-1H-pyrazol-3-yl]carbonyl}piperidin-4-yl)-3-(propan-2-yl)urea], the Kb at CB1 [1] (setting [3]) was 608 nM.

In the case of `Cc1c(C(=O)N2CCC(O)(c3ccccc3)CC2)nn(-c2ccc(Cl)cc2Cl)c1-c1ccc(C#N)cc1` [CN, phenyl, OH, 4-[1-(2,4-dichlorophenyl)-3-[(4-hydroxy-4-phenylpiperidin-1-yl)carbonyl]-4-methyl-1H-pyrazol-5-yl]benzonitrile], on CB1 [1] (setting [3]), the Kb amounted to 907 nM.

Turning to “4-C-5-(4-Chlorophenyl)-1-(2,4-dichlorophenyl)-4-methyl-1H-pyrazole-3-1-N-propylpiperidine-1,4-diamido [NH(n-propyl)]”, the Kb on CB1 [1] (setting [5]) turned out to be 66.5 nM.

For `CCNC(=O)N1CCC(NC(=O)c2nn(-c3ccc(Cl)cc3Cl)c(-c3ccc(Cl)cc3)c2C)CC1` [NHC2H5, 4-C-5-(4-chlorophenyl)-1-(2,4-dichlorophenyl)-4-methyl-1H-pyrazole-3-1-N-ethylpiperidine-1,4-diamido], the Ki on CB2 (setting [6]) is 13200 nM. For the same compound, at CB1 [2] (Table 5), the “Binding Selectivity using CP55940 Displacement” value (from here on “Binding Selectivity”) amounted to 79.0 and the Ki was 167 nM.

As for `Cc1c(C(=O)N[C@H]2CC[C@H](NS(C)(=O)=O)CC2)nn(-c2ccc(Cl)cc2Cl)c1-c1ccc(Cl)cc1` [5-(4-chlorophenyl)-1-(2,4-dichlorophenyl)-4-methyl-N-[(1r,4r)-4-methanesulfonamido-cyclohexyl]-1H-pyrazole-3-carboxamide], the Kb on CB1 [1] (setting [4]) is more than 10000 nM.

Turning to `Cc1c(C(=O)NCc2ccc(CNS(N)(=O)=O)cc2)nn(-c2ccc(Cl)cc2Cl)c1-c1ccc(Cl)cc1` [5-(4-chlorophenyl)-1-(2,4-dichlorophenyl)-4-methyl-N-({4-[(sulfamoylamino)methyl]phenyl}methyl)-1H-pyrazole-3-carboxamide], the Kb at CB1 [1] (setting [4]) is 376 nM.

Regarding `Cc1c(C(=O)NCCCCCCCNS(N)(=O)=O)nn(-c2ccc(Cl)cc2Cl)c1-c1ccc(Cl)cc1` [5-(4-chlorophenyl)-1-(2,4-dichlorophenyl)-4-methyl-N-[7-(sulfamoylamino)heptyl]-1H-pyrazole-3-carboxamide], the Kb on CB1 [1] (setting [4]) came to 304 nM.

For `Cc1c(C(=O)NCc2cccc(CNS(C)(=O)=O)c2)nn(-c2ccc(Cl)cc2Cl)c1-c1ccc(Cl)cc1` [5-(4-chlorophenyl)-1-(2,4-dichlorophenyl)-N-{[3-(methanesulfonamidomethyl)phenyl]methyl}-4-methyl-1H-pyrazole-3-carboxamide], the Kb on CB1 [1] (setting [4]) is 2830 nM.

As for `Cc1c(C(=O)NCC2CCC(CNS(N)(=O)=O)CC2)nn(-c2ccc(Cl)cc2Cl)c1-c1ccc(Cl)cc1` (mixture of isomers), the inhibitory constant (Ki) at CB2 (Table 3, radioligand [3H]CP55940, read-out: Ki(μM) CB2 CP55940) worked out at 1790 nM.

`CCCNC(=O)NC1(c2ccccc2)CCN(C(=O)c2nn(-c3ccc(Cl)cc3Cl)c(-c3ccc(Cl)cc3)c2C)CC1` [Cl, phenyl, NHC(O)NHC3H7, 1-(1-{[5-(4-chlorophenyl)-1-(2,4-dichlorophenyl)-4-methyl-1H-pyrazol-3-yl]carbonyl}-4-phenylpiperidin-4-yl)-3-propylurea]: the Ki at CB2 (setting [7]) is 293 nM. Further, at CB1 [2] (Table 4), the “Binding Selectivity” value came to 38.7 and the inhibition constant Ki worked out at 7.57 nM.

`CCCCOC(=O)N1CCC(NC(=O)c2nn(-c3ccc(Cl)cc3Cl)c(-c3ccc(Cl)cc3)c2C)CC1` [OC4H9, Butyl 4-[5-(4-chlorophenyl)-1-(2,4-dichlorophenyl)-4-methyl-1H-pyrazole-3-amido]piperidine-1-carboxylate]: the Kb on CB1 [1] (setting [5]) is 88 nM.

Regarding `CCCCNC(=O)NC1CCN(C(=O)c2nn(-c3ccc(Cl)cc3Cl)c(-c3ccc(Cl)cc3)c2C)CC1` [Cl, H, NHC(O)NHC4H9, 3-Butyl-1-(1-{[5-(4-chlorophenyl)-1-(2,4-dichlorophenyl)-4-methyl-1H-pyrazol-3-yl]carbonyl}piperidin-4-yl)urea], on CB1 [1] (setting [3]), the Kb stood at 395 nM.

For the compound `Cc1c(C(=O)NCc2ccc(CNS(C)(=O)=O)cc2)nn(-c2ccc(Cl)cc2Cl)c1-c1ccc(Cl)cc1` [5-(4-chlorophenyl)-1-(2,4-dichlorophenyl)-N-{[4-(methanesulfonamidomethyl)phenyl]methyl}-4-methyl-1H-pyrazole-3-carboxamide], the Kb on CB1 [1] (setting [4]) was 2930 nM.

With `Cc1c(C(=O)N[C@H]2CC[C@H](NS(N)(=O)=O)CC2)nn(-c2ccc(Cl)cc2Cl)c1-c1ccc(Cl)cc1` [5-(4-chlorophenyl)-1-(2,4-dichlorophenyl)-4-methyl-N-[(1r,4r)-4-(sulfamoylamino)cyclohexyl]-1H-pyrazole-3-carboxamide], the Kb on CB1 [1] (setting [4]) was determined as 9430 nM.

`CCCCNC(=O)N1CCC(NC(=O)c2nn(-c3ccc(Cl)cc3Cl)c(-c3ccc(Cl)cc3)c2C)CC1` [NH(n-butyl), 1-N-Butyl-4-C-5-(4-chlorophenyl)-1-(2,4-dichlorophenyl)-4-methyl-1H-pyrazole-3-piperidine-1,4-diamido]: the Ki at CB2 (setting [6]) was more than 20000 nM; at CB1 [2] (Table 5), 149 nM.

With `Cc1c(C(=O)NCCCN(C)CCCNS(C)(=O)=O)nn(-c2ccc(Cl)cc2Cl)c1-c1ccc(Cl)cc1` [5-(4-chlorophenyl)-1-(2,4-dichlorophenyl)-N-{3-[(3-methanesulfonamidopropyl)(methyl)amino]propyl}-4-methyl-1H-pyrazole-3-carboxamide], the Kb at CB1 [1] (setting [4]) turned out to be 5340 nM.

Consider `Cc1c(C(=O)NC2CCN(C(=O)NC(C)C)CC2)nn(-c2ccc(Cl)cc2Cl)c1-c1ccc(Cl)cc1` [NH(isopropyl), 4-C-5-(4-Chlorophenyl)-1-(2,4-dichlorophenyl)-4-methyl-1H-pyrazole-3-1-N-(propan-2-yl)piperidine-1,4-diamido], for which the Ki at CB2 (setting [6]) was determined as 17200 nM; at CB1 [2] (Table 5), 97.9 nM. In addition, the “Binding Selectivity” value at CB1 [2] (Table 5) was 175.7.

In the case of `CCNC(=O)NC1(c2ccccc2)CCN(C(=O)c2nn(-c3ccc(Cl)cc3Cl)c(-c3ccc(Cl)cc3)c2C)CC1` [Cl, phenyl, NHC(O)NHCH2CH3, 1-(1-{[5-(4-chlorophenyl)-1-(2,4-dichlorophenyl)-4-methyl-1H-pyrazol-3-yl]carbonyl}-4-phenylpiperidin-4-yl)-3-ethylurea], the Ki at CB2 (setting [7]) was 182 nM. For the same compound, on CB1 [2] (Table 4), the “Binding Selectivity” value stood at 12.1 and the Ki was determined as 15 nM.

Regarding `CCCCCCNC(=O)NC1(c2ccccc2)CCN(C(=O)c2nn(-c3ccc(Cl)cc3Cl)c(-c3ccc(Cl)cc3)c2C)CC1` [Cl, phenyl, NHC(O)NH(C6H13), 1-(1-{[5-(4-chlorophenyl)-1-(2,4-dichlorophenyl)-4-methyl-1H-pyrazol-3-yl]carbonyl}-4-phenylpiperidin-4-yl)-3-hexylurea], the Ki at CB2 (setting [7]) amounted to 2410 nM. Moreover, on CB1 [2] (Table 4), the “Binding Selectivity” value turned out to be 62.2 and the Ki was determined as 38.8 nM.

For the compound `Cc1c(C(=O)N2CCC(NS(C)(=O)=O)CC2)nn(-c2ccc(Cl)cc2Cl)c1-c1ccc(Cl)cc1` [Cl, H, NHS(O)2CH3, N-(1-{[5-(4-Chlorophenyl)-1-(2,4-dichlorophenyl)-4-methyl-1H-pyrazol-3-yl]carbonyl}piperidin-4-yl)methanesulfonamide], on CB1 [1] (setting [3]), the Kb is 146 nM.

In the case of `Cc1c(C(=O)N2CCC(NC(=O)OC(C)(C)C)CC2)nn(-c2ccc(Cl)cc2Cl)c1-c1ccc(Cl)cc1` [Cl, H, NHC(O)O(t-butyl), tert-Butyl N-(1-{[5-(4-chlorophenyl)-1-(2,4-dichlorophenyl)-4-methyl-1H-pyrazol-3-yl]carbonyl}piperidin-4-yl)carbamate], the Kb at CB1 [1] (setting [3]) was 209 nM.

In the case of `CCCNC(=O)NC1CCN(C(=O)c2nn(-c3ccc(Cl)cc3Cl)c(-c3ccc(Cl)cc3)c2C)CC1` [Cl, H, NHC(O)NHC3H7, 1-(1-{[5-(4-Chlorophenyl)-1-(2,4-dichlorophenyl)-4-methyl-1H-pyrazol-3-yl]carbonyl}piperidin-4-yl)-3-propylurea], the Kb on CB1 [1] (setting [3]) came to 546 nM.

As for `Cc1c(C(=O)NC2CCN(C(N)=O)CC2)nn(-c2ccc(Cl)cc2Cl)c1-c1ccc(Cl)cc1` [NH2, 4-C-5-(4-chlorophenyl)-1-(2,4-dichlorophenyl)-4-methyl-1H-pyrazole-3-piperidine-1,4-diamido], the Kb at CB1 [1] (setting [5]) amounted to 4100 nM.

For orientation: Ki means a dissociation constant, usually derived from enzyme kinetics or from competition with a known ligand.
